# PubChem BioAssay AID2060327 (Molecular Pharmacology Branch, DTP, NCI, 2025)
# System: PC-3 multi-cell spheroids, viability
# Assay: Anticancer human tumor PC-3 cell line growth inhibition [IpAb];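 note: spheroids exposed to compounds for 7 days before readout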;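 for viability, T/C: 100% = DMSO vehicle control wells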
# Conditions: for IC50: curve of first compound; for viability, T/C: stronger effect = lower value
# How it was run: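 Multi-cell spheroids of 60% tumour cells, 25% HUVEC and 15% MSC in ultra-low-attachment U-bottom wells, treated with agents combined with ipatasertib or abemaciclib. Half-log ranges top out near clinical Cmax, or 10 microM when Cmax is unknown.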
smiles,measurement,setting,value
C=CC(=O)N1CCN(c2nc(=O)n(-c3c(C)ccnc3C(C)C)c3nc(-c4c(O)cccc4F)c(F)cc23)C(C)C1 (stereo not given) + CC(C)NCC(C(=O)N1CCN(c2ncnc3c2C(C)CC3O)CC1)c1ccc(Cl)cc1,IC50,second compound 0.1 µM,> 10 µM
same,IC50,second compound 0.316 µM,< 0.0316 µM
same,IC50,second compound 1 µM,< 0.0316 µM
same,IC50,second compound 3.16 µM,< 0.0316 µM
same,IC50,second compound 10 µM,< 0.0316 µM
same,"viability, T/C","second compound 0.1 µM, first compound 0.0316 µM",82%
same,"viability, T/C","second compound 0.1 µM, first compound 0.1 µM",73.5%
same,"viability, T/C","second compound 0.1 µM, first compound 0.316 µM",72.8%
same,"viability, T/C","second compound 0.1 µM, first compound 1 µM",83.6%
same,"viability, T/C","second compound 0.1 µM, first compound 3.16 µM",99.1%
same,"viability, T/C","second compound 0.1 µM, first compound 10 µM",87.2%
same,"viability, T/C","second compound 0.316 µM, first compound 0.0316 µM",44.4%
same,"viability, T/C","second compound 0.316 µM, first compound 0.1 µM",44.4%
same,"viability, T/C","second compound 0.316 µM, first compound 0.316 µM",43.7%
same,"viability, T/C","second compound 0.316 µM, first compound 1 µM",34.7%
same,"viability, T/C","second compound 0.316 µM, first compound 3.16 µM",41.7%
same,"viability, T/C","second compound 0.316 µM, first compound 10 µM",43.1%
same,"viability, T/C","second compound 1 µM, first compound 0.0316 µM",26.5%
same,"viability, T/C","second compound 1 µM, first compound 0.1 µM",27.1%
same,"viability, T/C","second compound 1 µM, first compound 0.316 µM",27%
same,"viability, T/C","second compound 1 µM, first compound 1 µM",25.8%
same,"viability, T/C","second compound 1 µM, first compound 3.16 µM",26.3%
same,"viability, T/C","second compound 1 µM, first compound 10 µM",23.2%
same,"viability, T/C","second compound 3.16 µM, first compound 0.0316 µM",15.1%
same,"viability, T/C","second compound 3.16 µM, first compound 0.1 µM",15%
same,"viability, T/C","second compound 3.16 µM, first compound 0.316 µM",15.5%
same,"viability, T/C","second compound 3.16 µM, first compound 1 µM",15.6%
same,"viability, T/C","second compound 3.16 µM, first compound 3.16 µM",17.1%
same,"viability, T/C","second compound 3.16 µM, first compound 10 µM",13.1%
same,"viability, T/C","second compound 10 µM, first compound 0.0316 µM",14.6%
same,"viability, T/C","second compound 10 µM, first compound 0.1 µM",13.7%
same,"viability, T/C","second compound 10 µM, first compound 0.316 µM",13.4%
same,"viability, T/C","second compound 10 µM, first compound 1 µM",14%
same,"viability, T/C","second compound 10 µM, first compound 3.16 µM",14.5%
same,"viability, T/C","second compound 10 µM, first compound 10 µM",7.96%
CC(C)(C)c1cnc(CSc2cnc(NC(=O)C3CCNCC3)s2)o1 + CC(C)NCC(C(=O)N1CCN(c2ncnc3c2C(C)CC3O)CC1)c1ccc(Cl)cc1,IC50,second compound 0.1 µM,0.165 µM
same,IC50,second compound 0.316 µM,0.103 µM
same,IC50,second compound 1 µM,< 0.00949 µM
same,IC50,second compound 3.16 µM,< 0.00949 µM
same,IC50,second compound 10 µM,< 0.00949 µM
same,"viability, T/C","second compound 0.1 µM, first compound 0.00949 µM",80.2%
same,"viability, T/C","second compound 0.1 µM, first compound 0.03 µM",98.4%
same,"viability, T/C","second compound 0.1 µM, first compound 0.0949 µM",95.3%
same,"viability, T/C","second compound 0.1 µM, first compound 0.3 µM",4.14%
same,"viability, T/C","second compound 0.1 µM, first compound 0.949 µM",6.3%
same,"viability, T/C","second compound 0.1 µM, first compound 3 µM",6.84%
same,"viability, T/C","second compound 0.316 µM, first compound 0.00949 µM",49.9%
same,"viability, T/C","second compound 0.316 µM, first compound 0.03 µM",46.9%
same,"viability, T/C","second compound 0.316 µM, first compound 0.0949 µM",64%
same,"viability, T/C","second compound 0.316 µM, first compound 0.3 µM",3.47%
same,"viability, T/C","second compound 0.316 µM, first compound 0.949 µM",5.07%
same,"viability, T/C","second compound 0.316 µM, first compound 3 µM",5.91%
same,"viability, T/C","second compound 1 µM, first compound 0.00949 µM",31.3%
same,"viability, T/C","second compound 1 µM, first compound 0.03 µM",34.9%
same,"viability, T/C","second compound 1 µM, first compound 0.0949 µM",36.7%
same,"viability, T/C","second compound 1 µM, first compound 0.3 µM",3.39%
same,"viability, T/C","second compound 1 µM, first compound 0.949 µM",4.05%
same,"viability, T/C","second compound 1 µM, first compound 3 µM",5.41%
same,"viability, T/C","second compound 3.16 µM, first compound 0.00949 µM",17.2%
same,"viability, T/C","second compound 3.16 µM, first compound 0.03 µM",19.3%
same,"viability, T/C","second compound 3.16 µM, first compound 0.0949 µM",19.5%
same,"viability, T/C","second compound 3.16 µM, first compound 0.3 µM",3%
same,"viability, T/C","second compound 3.16 µM, first compound 0.949 µM",3.25%
same,"viability, T/C","second compound 3.16 µM, first compound 3 µM",4.47%
same,"viability, T/C","second compound 10 µM, first compound 0.00949 µM",14.8%
same,"viability, T/C","second compound 10 µM, first compound 0.03 µM",16.8%
same,"viability, T/C","second compound 10 µM, first compound 0.0949 µM",10.1%
same,"viability, T/C","second compound 10 µM, first compound 0.3 µM",2.76%
same,"viability, T/C","second compound 10 µM, first compound 0.949 µM",3.15%
same,"viability, T/C","second compound 10 µM, first compound 3 µM",3.94%
